Measured values from patent publication US6610846B1, “Heteroaromatic glucokinase activators” (Hoffman-La Roche Inc., priority 1999, dated 2003).
Values belong to the molecule of their own block, whether it stands above or below them.

- melting point: 83 to 86 °C
SMILES: CS(=O)(=O)c1ccc(C(CC2CCCC2)C(=O)Nc2ccc(Br)cn2)cc1Br (centres unmarked) [Example 74, 2-(3-Bromo-4-methanesulfonyl-phenyl)-N-(5-bromo-pyridin-2-yl)-3-cyclopentyl-propionamide]

- melting point: 81 to 83 °C
SMILES: O=C(Nc1nccnn1)C(CC1CCCC1)c1ccc(Cl)c(Cl)c1 (centres unmarked) [Example 81, 3-Cyclopentyl-2-(3,4-dichlorophenyl)-N-[1,2,4]triazin-3-yl-propionamide]

- melting point: 90 to 91 °C
SMILES: O=C(Nc1nncs1)C(CC1CCCC1)c1ccc(Cl)c(Cl)c1 (centres unmarked) [Example 83, 3-Cyclopentyl-2-(3,4-dichlorophenyl)-N-[1,3,4]thiadiazol-2-yl-propionamide]

- melting point: 125 to 127 °C
SMILES: O=C(Nc1nccs1)C(CC1CCCC1)c1ccc(F)c(C(F)(F)F)c1 (centres unmarked) [Example 87(A), 3-Cyclopentyl-2-(4-fluoro-3-trifluoromethyl-phenyl)-N-thiazol-2-yl-propionamide]

- melting point: 134 to 136 °C
SMILES: O=C(Nc1nccs1)C(CC1CCCC1)c1cccc(C(F)(F)F)c1 (centres unmarked) [Example 88, 3-Cyclopentyl-N-thiazol-2-yl-2-(3-trifluoromethyl-phenyl)-propionamide]

- melting point: 107.3 to 109.9 °C
SMILES: O=C(Nc1ccc(Br)cn1)[C@H](CC1CCCC1)c1ccc(Cl)c(Cl)c1 [Example 105, N-(5-Bromo-pyridin-2-yl)-3-cyclopentyl-2(R)-(3,4-dichloro-phenyl)-propionamide]

- melting point: 44 to 45 °C
SMILES: COc1cccc(C(CC2CCCC2)C(=O)Nc2nccs2)c1 (centres unmarked) [Example 110, 3-Cyclopentyl-2-(3-methoxy-phenyl)-N-thiazol-2-yl-propionamide]

- melting point: 177 to 179 °C
SMILES: O=C(Nc1nccs1)C(CC1CCCC1)c1cccc(O)c1 (centres unmarked) [Example 111, 3-Cyclopentyl-2-(3-hydroxy-phenyl)-N-thiazol-2-yl-propionamide]

- melting point: 50 to 52 °C
SMILES: COc1ccc(C(CC2CCCC2)C(=O)Nc2nccs2)cc1OC (centres unmarked) [Example 113, 3-Cyclopentyl-2-(3,4-dimethoxy-phenyl)-N-thiazol-2-yl-propionamide]

- melting point: 170 to 173 °C
SMILES: O=C(Nc1nccs1)C(CC1CCCC1)c1ccc(O)c(O)c1 (centres unmarked) [Example 114, 3-Cyclopentyl-2-(3,4-dihydroxy-phenyl)-N-thiazol-2-yl-propionamide]

- melting point: 166 to 167 °C
SMILES: COc1ccc(C(CC2CCCC2)C(=O)Nc2nccs2)cc1 (centres unmarked) [Example 115, 3-Cyclopentyl-2-(4-methoxy-phenyl)-N-thiazol-2-yl-propionamide]

- melting point: 198 to 200 °C
SMILES: O=C(Nc1nccs1)C(CC1CCCC1)c1ccc(O)cc1 (centres unmarked) [Example 116, 3-Cyclopentyl-2-(4-hydroxy-phenyl)-N-thiazol-2-yl-propionamide]

- melting point: 54 to 56 °C
SMILES: COC(=O)c1ccc(C(CC2CCCC2)C(=O)Nc2nccs2)cc1 (centres unmarked) [Example 117, 4-[2-Cyclopentyl-1-(thiazol-2-ylcarbamoyl)-ethyl]-benzoic acid methyl ester]

- melting point: 199 to 201 °C
SMILES: O=C(Nc1nccs1)C(CC1CCCC1)c1ccc(O)c(F)c1 (centres unmarked) [Example 119, 3-Cyclopentyl-2-(3-fluoro-4-hydroxy-phenyl)-N-thiazol-2-yl-propionamide]

- melting point: 251 to 255 °C
SMILES: O=C(O)c1ccc(NC(=O)C(CC2CCCC2)c2cccc(Cl)c2)nc1 (centres unmarked) [Example 120, 6-[2-(3-Chloro-phenyl)-3-cyclopentyl-propionylamino]-nicotinic acid]

- melting point: 128 to 130 °C
SMILES: CSc1ccc([C@@H](CC2CCCC2)C(=O)Nc2cnccn2)cc1 [Example 126, 3-Cyclopentyl-2(R)-(4-methylsulfanyl-phenyl)-N-pyrazin-2-yl-propionamide]

- melting point: 76 to 79 °C
SMILES: CS(=O)(=O)c1ccc(C(CC2CCCC2)C(=O)Nc2ccccn2)cc1F (centres unmarked) [Example 136, 3-Cyclopentyl-2-(3-fluoro-4-methanesulfonyl-phenyl)-N-pyridin-2-yl-propionamide]

- melting point: > 200 °C
SMILES: CS(=O)(=O)c1ccc([C@@H](CC2CCCC2)C(=O)Nc2cc[nH]c(=O)n2)cc1Cl [Example 145, 2(R)-(3-Chloro-4-methanesulfonyl-phenyl)-3-cyclopentyl-N-(2-oxo-1,2-dihydro-pyrimidin-4-yl)-propionamide]

- melting point: 88 to 93 °C
SMILES: CS(=O)(=O)c1ccc(C(CC2CCCC2)C(=O)Nc2cnccn2)cc1C#N (centres unmarked) [Example 153, 2-(3-Cyano-4-methanesulfonyl-phenyl)-3-cyclopentyl-N-pyrazin-2-yl-propionamide]

- melting point: 109 to 110 °C
SMILES: CSc1ccc(C(CC2CCCC2)C(=O)Nc2ccc([N+](=O)[O-])cn2)cc1C(F)(F)F (centres unmarked) [Example 154(A), 3-Cyclopentyl-2-(4-methylsulfanyl-3-trifluoromethyl-phenyl)-N-(5-nitro-pyridin-2-yl)-propionamide]

Further lines, the molecule ahead of its results:

SMILES: O=C(Nc1nccs1)C(CC1CCCC1)c1cccc(S(=O)(=O)C(F)(F)F)c1 (centres unmarked) [Example 69, 3-Cyclopentyl-N-thiazol-2-yl-2-(3-trifluoromethanesulfonyl-phenyl)-propionamide]
- melting point: 61 to 64 °C

SMILES: O=C(Nc1nccs1)C(CC1CCCC1)c1ccc(C(F)(F)F)c(F)c1 (centres unmarked) [Example 70, 3-Cyclopentyl-2-(3-fluoro-4-trifluoromethyl-phenyl)-N-thiazol-2-yl-propionamide]
- melting point: 194 to 195 °C

SMILES: CCS(=O)(=O)c1ccc(C(CC2CCCC2)C(=O)Nc2ccccn2)cc1 (centres unmarked) [Example 78, 3-Cyclopentyl-2-(4-ethanesulfonyl-phenyl)-N-pyridin-2-yl-propionamide]
- melting point: 144 to 145 °C

SMILES: CS(=O)(=O)c1ccc(C(CC2CCCC2)C(=O)Nc2nccs2)cc1S(C)(=O)=O (centres unmarked) [Example 79, 2-(3,4-Bis-methanesulfonyl-phenyl)-3-cyclopentyl-N-thiazol-2-yl-propionamide]
- melting point: 104 to 107 °C

SMILES: NS(=O)(=O)c1ccc(C(CC2CCCC2)C(=O)Nc2nccs2)cc1 (centres unmarked) [Example 82, 3-Cyclopentyl-2-(4-sulfamoyl-phenyl)-N-thiazol-2-yl-propionamide]
- melting point: 179 to 181 °C

SMILES: N#Cc1ccc(C(CC2CCCC2)C(=O)Nc2nccs2)cc1 (centres unmarked) [Example 84(A), 2-(4-Cyano-phenyl)-3-cyclopentyl-N-thiazol-2-yl-propionamide]
- melting point: 64 to 66 °C

SMILES: CCCCS(=O)(=O)c1ccc(C(CC2CCCC2)C(=O)Nc2nccs2)cc1 (centres unmarked) [Example 86(A), 2-[4-(Butane-1-sulfonyl)-phenyl]-3-cyclopentyl-N-thiazol-2-yl-propionamide]
- melting point: 163 to 165 °C

SMILES: CS(=O)(=O)c1ccc(C(CC2CCCC2)C(=O)Nc2ccccn2)cc1C(F)(F)F (centres unmarked) [Example 90, 3-Cyclopentyl-2-(4-methanesulfonyl-3-trifluoromethyl-phenyl)-N-pyridin-2-yl-propionamide]
- melting point: 86 to 89 °C

SMILES: O=C(Nc1ccc(C(F)(F)F)cn1)[C@H](CC1CCCC1)c1ccc(Cl)c(Cl)c1 [Example 101, 3-Cyclopentyl-2(R)-(3,4-dichloro-phenyl)-N-(5-trifluoromethyl-pyridin-2-yl)-propionamide]
- melting point: 113.8 to 117.5 °C

SMILES: CNC(=O)c1ccc(NC(=O)C(CC2CCCC2)c2ccc(Cl)c(Cl)c2)nc1 (centres unmarked) [Example 103, 6-[3-Cyclopentyl-2-(3,4-dichloro-phenyl)-propionylamino]-N-methyl-nicotinamide]
- melting point: 229.1 to 231.7 °C

SMILES: O=C(Nc1cnccn1)C(CC1CCCC1)c1ccc(Cl)c(Cl)c1 (centres unmarked) [Example 104, 3-Cyclopentyl-2-(3,4-dichloro-phenyl)-N-pyrazin-2-yl-propionamide]
- melting point: 46.5 to 51.3 °C

SMILES: O=C(Nc1nccs1)C(CC1CCCC1)c1cccc([N+](=O)[O-])c1 (centres unmarked) [Example 109, 3-Cyclopentyl-2-(3-nitrophenyl)-N-thiazol-2-yl-propionamide]
- melting point: 171 to 174 °C

SMILES: COc1ccc(C(CC2CCCC2)C(=O)Nc2nccs2)cc1F (centres unmarked) [Example 118, 3-Cyclopentyl-2-(3-fluoro-4-methoxy-phenyl)-N-thiazol-2-yl-propionamide]
- melting point: 51 to 53 °C

SMILES: CS(=O)(=O)c1ccc([C@@H](CC2CCCC2)C(=O)Nc2cnccn2)cc1 [Example 127, 3-Cyclopentyl-2(R)-(4-methylsulfonyl-phenyl)-N-pyrazin-2-yl-propionamide]
- melting point: 75 to 80 °C

SMILES: CS(=O)(=O)c1ccc(C(CC2CCCC2)C(=O)Nc2ncc(Br)s2)cc1 (centres unmarked) [Example 132, N-(5-Bromo-thiazol-2-yl)-3-cyclopentyl-2-(4-methanesulfonyl-phenyl)-propionamide]
- melting point: 73 to 75 °C

SMILES: CS(=O)(=O)c1ccc(C(CC2CCCC2)C(=O)Nc2ncc(C(N)=O)s2)cc1 (centres unmarked) [Example 134, 2-[3-Cyclopentyl-2-(4-methanesulfonyl-phenyl)-propionylamino]-thiazole-5-carboxylic acid amide]
- melting point: 155 to 160 °C

SMILES: CS(=O)(=O)c1ccc(C(CC2CCCC2)C(=O)Nc2ccncn2)cc1Br (centres unmarked) [Example 148(A), 2-(3-Bromo-4-methanesulfonyl-phenyl)-3-cyclopentyl-N-pyrimidin-4-yl-propionamide]
- melting point: 75 to 80 °C

SMILES: CS(=O)(=O)c1ccc(C(CC2CCCC2)C(=O)Nc2ncc[nH]2)cc1Br (centres unmarked) [Example 150, 2-(3-Bromo-4-methanesulfonyl-phenyl)-3-cyclopentyl-N-(1 H-imidazol-2-yl)-propionamide]
- melting point: > 210 °C (dec.)

SMILES: CS(=O)(=O)c1ccc(C(CC2CCCC2)C(=O)Nc2ccncn2)cc1C#N (centres unmarked) [Example 151, 2-(3-Cyano-4-methanesulfonyl-phenyl)-3-cyclopentyl-N-pyrimidin-4-yl-propionamide]
- melting point: 79 to 84 °C

SMILES: Cc1nccc(NC(=O)C(CC2CCCC2)c2ccc(S(C)(=O)=O)c(C#N)c2)n1 (centres unmarked) [Example 152, 2-(3-Cyano-4-methanesulfonyl-phenyl)-3-cyclopentyl-N-(2-methyl-pyrimidin-4-yl)-propionamide]
- melting point: 89 to 94 °C

SMILES: CS(=O)(=O)c1ccc(C(CC2CCCC2)C(=O)Nc2ccnc(=O)[nH]2)cc1C(F)(F)F (centres unmarked) [Example 155(A), 3-Cyclopentyl-2-(4-methanesulfonyl-3-trifluoromethyl-phenyl)-N-(2-oxo-2,3-dihydro-pyrimidin-4-yl)-propionamide]
- melting point: 236 to 238 °C
